Counter-ions that a name gives are not always drawn.
Columns and labels:
[1] = system: placental barrier of the in vitro placenta device (coculture of Bewo trophoblasts and HUVEC); assay: Maternal-placental size exclusion permeability assay in the in vitro placenta device; type: in vitro ADME, human; conditions: injected into maternal vascular channel at 0.1 μL/min for 1 hour; PI = ratio of sum ROIs trophoblast to maternal vascular channel; FIG. 9B
Protocol: Again, devices can be placed in the incubator.
In another example, one embodiment of the present invention was used to evaluate maternal-placental size exclusion, where a fluorescein sodium salt (FSS) solution was injected into the maternal vascular channel at 0.1 μL/min for 1 hour. […] PI was expected to decrease as a function of compound molecular weight.

[2] = system: trophoblast channel cells; assay: Cytotoxicity by adenylate kinase release (luminescence), samples from trophoblast channel; type: cell-based; conditions: luminescence plate reader, FIG. 11
Protocol: Following exposure, FSS was injected into the maternal channel and permeability assayed. Permeability in the devices was 10-fold higher in trypan blue treated devices compared to controls. An additional assay was performed to determine cytotoxicity as it relates to the release of adenylate kinase. A positive control (100% death by lysis buffer) and a negative control (media only) were included for comparison. Samples were taken from the trophoblast channel and placed in a low volume, white walled […] plate for luminescence analysis using a plate reader. […] The increase in AK release in arbitrary luminescence units compares the toxic exposure of trypan blue to positive and negative controls.

[3] = system: intervillous space-trophoblast barrier; assay: Morphological effects of toxic exposure in the in vitro placenta device; type: cell-based; conditions: injected into maternal channel at 3 μL/min for 4 min, then incubated at 37° C. for 15 min; FIG. 10
Source text: In some embodiments, the in vitro placental model device can be used for studying toxicity of test agents to the placenta. Certain compounds not only induce fetal toxicity upon crossing the placental barrier, but also disrupt the barrier itself. The microfluidic placental barrier model can be used to study response to toxic exposure of test agents. The impact to barrier function can be assessed through permeability comparisons and toxicity (e.g., cytotoxicity, etc.) can be assessed off chip by various methods (e.g., cell lysate luminescence assay, genomic analysis, etc.).
For example, an in vitro placenta device was exposed to trypan blue by injection into the maternal channel at 3 μL/min for 4 min and then incubated at 37° C. for 15 min, similar to protocols in literature^7.8. […] White arrows show barrier degradation, and dark arrows show apoptosis following trypan blue exposure.

SMILES | increase in average PI compared to 4 kD TRITC-dextran [1] [fold] | increase in adenylate kinase release [2] [fold] | morphological effects of exposure at the intervillous space-trophoblast barrier [3]
O=C1OC2(c3ccc(O)cc3Oc3cc(O)ccc32)c2ccccc21 [FSS, fluorescein sodium salt] | ~2 | – | –
Cc1cc(-c2ccc(/N=N/c3c(S(=O)(=O)O)cc4cc(S(=O)(=O)O)cc(N)c4c3O)c(C)c2)ccc1/N=N/c1c(S(=O)(=O)O)cc2cc(S(=O)(=O)O)cc(N)c2c1O [trypan blue] | – | 1.5 | evidence of barrier degradation (e.g., cell death and detachment) and apoptosis

From US20240161653A1, “IN VITRO MODEL DEVICE FOR PLACENTAL BARRIER” (CFD Research Corporation, priority 2022, published 2024)
